ChEMBL document CHEMBL1201862, “PubChem BioAssay data set” (2004)
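Cells were grown in 96-well plates and exposed to each compound for 48 hours at five concentrations; endpoints were interpolated linearly between bracketing concentrations, or set to the highest concentration if not reached. GI50: concentration for 50% inhibition of growth.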 The source made the active and inactive calls. No stated cut-off is given here; in the data, active = GI50 up to about 1.1 µM and inactive = higher. Residues, ends and D or L forms follow the SMILES beside them.

Columns and labels:
Test in all cases: NCI tumour cell line growth inhibition, 48 h
MDA-MB-435 = tested on: MDA-MB-435
SK-OV-3 = tested on: SK-OV-3
MDA-N = tested on: MDA-N
M14 = tested on: M14
UACC-257 = tested on: UACC-257
SK-MEL-28 = tested on: SK-MEL-28
HOP-62 = tested on: HOP-62
RXF 393 = tested on: RXF 393
EKVX = tested on: EKVX
IGROV-1 = tested on: IGROV-1
OVCAR-5 = tested on: OVCAR-5
HCT-15 = tested on: HCT-15
NCI-H226 = tested on: NCI-H226
T47D = tested on: T47D
CCRF-CEM = tested on: CCRF-CEM
SN12C = tested on: SN12C
MDA-MB-231 = tested on: MDA-MB-231
Malme-3M = tested on: Malme-3M

Row | SMILES | GI50 (MDA-MB-435) | GI50 (SK-OV-3) | GI50 (MDA-N) | GI50 (M14) | GI50 (UACC-257) | GI50 (SK-MEL-28) | GI50 (HOP-62) | GI50 (RXF 393) | GI50 (EKVX) | GI50 (IGROV-1) | GI50 (OVCAR-5) | GI50 (HCT-15) [µM] | GI50 (NCI-H226) | GI50 (T47D) | GI50 (CCRF-CEM) | GI50 (SN12C) | GI50 (MDA-MB-231) | GI50 (Malme-3M)
1 | Cc1ccc(S(=O)(=O)[N-]C2C(=O)c3ccccc3C(=O)C2[n+]2cccc(C(N)=O)c2)cc1 (stereo not drawn) | > 100 µM (inactive) | > 100 µM (inactive) | 34.8 µM (inactive) | > 100 µM (inactive) | > 100 µM (inactive) | > 100 µM (inactive) | > 100 µM (inactive) | > 100 µM (inactive) | > 100 µM (inactive) | > 100 µM (inactive) | > 100 µM (inactive) | > 100 | > 100 µM (inactive) | 24 µM (inactive) | > 100 µM (inactive) | 30.3 µM (inactive) | 32.6 µM (inactive) | 
2 | O=C1C[C@@]23CCC4(CC2=CCC[C@H]3O1)OCCO4 | > 100 µM (inactive) | > 100 µM (inactive) | > 100 µM (inactive) | > 100 µM (inactive) | > 100 µM (inactive) | > 100 µM (inactive) | > 100 µM (inactive) | > 100 µM (inactive) | > 100 µM (inactive) | > 100 µM (inactive) | > 100 µM (inactive) | > 100 | > 100 µM (inactive) | > 100 µM (inactive) |  | > 100 µM (inactive) | > 100 µM (inactive) | > 100 µM (inactive)
3 | O=[N+]([O-])c1ccc(C2=NOC(c3ccc(Cl)cc3)N2C23CC4CC(CC(C4)C2)C3)cc1 (stereo not drawn) | > 100 µM (inactive) | > 100 µM (inactive) | > 100 µM (inactive) | > 100 µM (inactive) | > 100 µM (inactive) | > 100 µM (inactive) | > 100 µM (inactive) | 1.86 µM (inactive) | > 100 µM (inactive) | > 100 µM (inactive) |  | 97.1 | 64.9 µM (inactive) | 35.2 µM (inactive) | > 100 µM (inactive) | > 100 µM (inactive) | > 100 µM (inactive) | > 100 µM (inactive)
4 | CCN(CC)CCNC(=O)c1cc2cc(NC(=O)c3cc4cc([N+](=O)[O-])ccc4[nH]3)ccc2[nH]1 | 37.5 µM (inactive) | 25.9 µM (inactive) | 52.8 µM (inactive) | 57.8 µM (inactive) | 29.4 µM (inactive) | 25.2 µM (inactive) | > 77.1 µM (inactive) | > 43.9 µM (inactive) | 4.98 µM (inactive) | 18.1 µM (inactive) | 69.7 µM (inactive) | > 100 | 56.2 µM (inactive) | 18.4 µM (inactive) |  | > 65.2 µM (inactive) | 3.83 µM (inactive) | 
5 | O=C(Cn1c(C(=O)/C=C/c2ccco2)nc2ccccc21)c1ccc(Cl)cc1 | 12.1 µM (inactive) | 44.4 µM (inactive) | 17.1 µM (inactive) | 19.9 µM (inactive) | 14.5 µM (inactive) | 26.6 µM (inactive) | 46.8 µM (inactive) | 30.4 µM (inactive) |  | 15.1 µM (inactive) | > 100 µM (inactive) | 20.6 | 52.7 µM (inactive) | 31.6 µM (inactive) | 3.58 µM (inactive) | 15.2 µM (inactive) | 20.2 µM (inactive) | 3.06 µM (inactive)
6 | CCOC1OC(COC(=O)C(C)(C)C)C(O)CC1n1cc(C)c(=O)[nH]c1=O (stereo not drawn) | > 100 µM (inactive) |  | > 100 µM (inactive) | > 100 µM (inactive) | > 100 µM (inactive) | > 100 µM (inactive) |  | > 100 µM (inactive) | > 100 µM (inactive) | > 100 µM (inactive) | > 100 µM (inactive) | > 100 | > 100 µM (inactive) | > 100 µM (inactive) | > 100 µM (inactive) | > 100 µM (inactive) | > 100 µM (inactive) | > 100 µM (inactive)
7 | CCC(C)C(NC(=O)C1CCCN1)C(=O)NC(C(=O)NCC(=O)NC(CC(N)=O)C(=O)NC(CC(C)C)C(=O)NC(CC(C)C)C(=O)NC(CCCCN)C(N)=O)C(C)C (stereo not drawn) (H-PIVGNLLK-NH2; configuration not given here) | > 75 µM (inactive) | > 75 µM (inactive) | > 75 µM (inactive) | > 75 µM (inactive) | > 75 µM (inactive) | > 75 µM (inactive) | > 75 µM (inactive) |  | > 75 µM (inactive) | > 75 µM (inactive) | > 75 µM (inactive) | > 75 | > 75 µM (inactive) | > 75 µM (inactive) | > 75 µM (inactive) | > 75 µM (inactive) | > 75 µM (inactive) | > 75 µM (inactive)
8 | C=C(C)[C@@H]1CC[C@]2(C(=O)O)CC[C@]3(C)[C@H](CCC4[C@@]5(C)CC[C@H](C(=O)/C=C/c6ccc(O)c(O)c6)C(C)(C)[C@@H]5CC[C@]43C)[C@@H]12 (stereo partly drawn) | 2.29 µM (inactive) | 4.42 µM (inactive) | 3.89 µM (inactive) | 3.39 µM (inactive) | 2.81 µM (inactive) |  | 2.9 µM (inactive) | 6 µM (inactive) | 8.55 µM (inactive) | 4.24 µM (inactive) | 12.7 µM (inactive) | 3.31 |  | 5.14 µM (inactive) | 2.42 µM (inactive) | 5.02 µM (inactive) | 4.36 µM (inactive) | 
9 | N#C[C@H](C(=O)c1ccccc1F)c1nc2ccccc2[nH]1 | > 100 µM (inactive) | > 100 µM (inactive) | > 100 µM (inactive) | > 100 µM (inactive) | > 100 µM (inactive) | > 100 µM (inactive) | > 100 µM (inactive) | > 100 µM (inactive) | > 100 µM (inactive) | 60.7 µM (inactive) | > 100 µM (inactive) | > 100 | > 100 µM (inactive) | > 100 µM (inactive) | 53 µM (inactive) | > 100 µM (inactive) | > 100 µM (inactive) | 
10 | O=c1oc2cc(O)ccc2c(O)c1C(c1ccccc1F)c1c(O)c2ccc(O)cc2oc1=O | 43.8 µM (inactive) | > 100 µM (inactive) | 61.2 µM (inactive) | > 100 µM (inactive) | > 100 µM (inactive) | 52 µM (inactive) | > 100 µM (inactive) | 39.7 µM (inactive) | > 100 µM (inactive) | > 100 µM (inactive) | > 100 µM (inactive) | 31 | > 100 µM (inactive) | > 100 µM (inactive) |  | > 100 µM (inactive) | 95.7 µM (inactive) | 
11 | CC(CC(C)[C@H]1CCC2[C@H]3C(CC(=O)[C@@]21C)[C@@]1(C)CCC(O)C[C@H]1C[C@@H]3O)C(=O)O (stereo partly drawn) | > 100 µM (inactive) |  | > 100 µM (inactive) | > 100 µM (inactive) | > 100 µM (inactive) | > 100 µM (inactive) | > 100 µM (inactive) | > 100 µM (inactive) | > 100 µM (inactive) | > 100 µM (inactive) | > 100 µM (inactive) | 77.3 | > 100 µM (inactive) | > 100 µM (inactive) | 43.4 µM (inactive) | > 100 µM (inactive) | > 100 µM (inactive) | > 100 µM (inactive)
12 | COc1cc(C=O)cc(/C=N/N=C/c2ccccc2O)c1O | 23.9 µM (inactive) | 12.7 µM (inactive) | 25 µM (inactive) | 15.6 µM (inactive) | 32.9 µM (inactive) | 14.7 µM (inactive) | 30.7 µM (inactive) | 37.3 µM (inactive) |  | 40.1 µM (inactive) |  | 40.1 | 16.6 µM (inactive) | 4.71 µM (inactive) | 8.85 µM (inactive) | 17.6 µM (inactive) | 23.7 µM (inactive) | 3.97 µM (inactive)
